pIC50: −log10 of the molar value.

The subject of one test is Tubulin. The experiment in a line: Compound was evaluated for the inhibition of MAP-rich tubulin polymerisation at 0.3 uM.
Test [1] has as its system KB. Description: Compound was tested for the cytotoxicity against KB-8-5 cell line expressing P-glycoprotein. The format is functional, cell-based. The settings on record: Homo sapiens.
Another test relates to KB-V1 (Homo sapiens). The experiment in a line: Compound was tested for the cytotoxicity against KB-V1 cell line expressing P-glycoprotein.
Test [2] deals with KB 3-1. The experiment in a line: Compound was tested for the cytotoxicity against KB-3-1 cell line. The settings on record: Homo sapiens. The format is functional, cell-based.
For test [3], the system named is KB. Description: Compound was tested for the cytotoxicity against KB-8-5 cell line expressing P-glycoprotein; value ranges from 1.2-5 nM. The format is functional, cell-based. The conditions noted are these: Homo sapiens.
Test [4] deals with KB 3-1. The experiment in a line: Compound was tested for the cytotoxicity against KB-3-1 cell line; value ranges from 0.6-2 nM. The format is functional, cell-based. The conditions noted are these: Homo sapiens.
For test [5], the system named is KB 3-1. The experiment in a line: Compound was tested for the cytotoxicity against KB-3-1 cell line; value ranges from 2-6 nM. It counts as functional, cell-based. The conditions noted are these: Homo sapiens.
For test [6], the system named is KB. Description: Compound was tested for the cytotoxicity against KB-8-5 cell line expressing P-glycoprotein; value ranges from 30-80 nM. It counts as functional, cell-based. The conditions noted are these: Homo sapiens.

As usually defined, the inhibition is the percentage by which the read-out fell short of the control. A low value points to little suppression. In general, pIC50 refers to −log10 of the IC50, conventionally taken in molar units. In the case of `CN[C@H](C(=O)N[C@H](C(=O)N(C)[C@H](/C=C(\C)C(=O)O)C(C)C)C(C)O)C(C)(C)c1ccccc1` (some centres not stated), the inhibition in the test with Tubulin is 91%. Further, the values for the negative-log IC50 (pIC50) with KB [1], in the test with KB-V1 (Homo sapiens) and with KB 3-1 [2] were 6.16, less than 5.52 and 6.56, respectively.

Consider `CN[C@H](C(=O)N[C@H](C(=O)N(C)[C@H](/C=C(\C)C(=O)O)C(C)C)C(C)(C)C)C(C)(C)c1ccccc1` [TALTOBULIN], for which the negative logarithm of the IC50 (pIC50) was 8.30 with KB [3] and 8.70 in the test on KB 3-1 [4].

`CN[C@H](C(=O)N[C@H](C(=O)N(C)[C@H](/C=C(\C)C(=O)O)C(C)C)C(C)(C)[S+](C)[O-])C(C)(C)c1ccccc1` (some centres not stated): the inhibition with Tubulin is 43%. Further, the pIC50 in the test on KB [1], in the test with KB-V1 (Homo sapiens) and in the test on KB 3-1 [2] was less than 5.52 each time.

In turn, `CN[C@H](C(=O)N[C@H](C(=O)N(C)[C@H](/C=C(\C)C(=O)O)C(C)C)C(C)(C)c1ccc(OC)cc1)C(C)(C)c1ccccc1` had an inhibition in the test with Tubulin of 56%. Moreover, the pIC50 with KB [1] is 7.26; in the test with KB-V1 (Homo sapiens), 5.75; with KB 3-1 [2], 7.59.

Turning to `CN[C@H](C(=O)N[C@H](C(=O)N(C)[C@H](/C=C(\C)C(=O)O)C(C)C)C(C)(C)S(C)(=O)=O)C(C)(C)c1ccccc1`, in the test on Tubulin, the inhibition was determined as 87%. Besides, the pIC50 with KB [1] was 6.23; in the test with KB-V1 (Homo sapiens), less than 5.52; in the test with KB 3-1 [2], 6.75.

`CN[C@H](C(=O)N[C@H](C(=O)N(C)[C@H](/C=C(\C)C(=O)O)C(C)C)C(C)OC)C(C)(C)c1ccccc1` (some centres not stated) displayed an inhibition in the test on Tubulin of 95%. The pIC50 was 5.76 with KB [1], less than 5.52 in the test on KB-V1 (Homo sapiens) and 6.06 in the test on KB 3-1 [2].

As to `CN[C@H](C(=O)N[C@H](C(=O)N(C)[C@H](/C=C(\C)C(=O)O)C(C)C)C(C)(C)SC)C(C)(C)c1ccccc1`, the negative-log IC50 (pIC50) is 8.66 in the test on KB [1], 6.84 in the test on KB-V1 (Homo sapiens) and 8.92 in the test with KB 3-1 [2].

Take `CN[C@H](C(=O)N[C@H](C(=O)N(C)[C@H](/C=C(\C)C(=O)O)C(C)C)C(C)(C)SCc1ccc(OC)cc1)C(C)(C)c1ccccc1`: the inhibition in the test with Tubulin came out at 94%. The results for the pIC50 in the test on KB [1], with KB-V1 (Homo sapiens) and with KB 3-1 [2] were 7.03, 5.64 and 7.23, respectively.

As to `CN[C@H](C(=O)N[C@H](C(=O)N(C)[C@H](/C=C(\C)C(=O)O)C(C)C)C(C)(C)SC)C(C)(C)c1ccc(OC)cc1`, the inhibition with Tubulin was 88%. The negative logarithm of the IC50 (pIC50) in the test with KB [1] is 8.74; in the test on KB-V1 (Homo sapiens) it was 7.20; in the test with KB 3-1 [2], 9.19.

The compound `CN[C@H](C(=O)N[C@H](C(=O)N(C)[C@H](/C=C(\C)C(=O)O)C(C)C)C(C)(C)SCc1ccc(OC)cc1)C(C)(C)c1ccc(OC)cc1` showed an inhibition in the test with Tubulin of 77%. In addition, the pIC50 is 7.36 in the test with KB [1], 5.68 in the test with KB-V1 (Homo sapiens) and 7.80 in the test on KB 3-1 [2].

Consider `CN[C@H](C(=O)N[C@@H](C(=O)N(C)[C@H](/C=C(\C)C(=O)O)C(C)C)C(C)O)C(C)(C)c1ccccc1` (some centres not stated), for which the inhibition in the test with Tubulin was determined as 9%. The pIC50 in the test on KB [1], in the test on KB-V1 (Homo sapiens) and with KB 3-1 [2] was less than 5.52 in each case.

In the test on Tubulin, `CN[C@H](C(=O)N[C@H](C(=O)N(C)[C@H](/C=C(\C)C(=O)O)C(C)C)C(C)(C)O)C(C)(C)c1ccccc1` showed an inhibition of 84%. Further, the pIC50 was 7.02 in the test with KB [1], less than 5.52 in the test on KB-V1 (Homo sapiens) and 7.24 with KB 3-1 [2].

In the test with Tubulin, `CN[C@H](C(=O)N[C@H](C(=O)N(C)[C@H](/C=C(\C)C(=O)O)C(C)C)C(C)(C)F)C(C)(C)c1ccccc1` yielded an inhibition of 91%. The pIC50 with KB [1] is 8.46; with KB-V1 (Homo sapiens), 6.93; in the test with KB 3-1 [2], 8.80.

Regarding `CC(=O)O[C@H]1C(=O)[C@@]2(C)[C@H]([C@H](OC(=O)c3ccccc3)[C@]3(O)C[C@H](OC(=O)[C@H](O)[C@@H](NC(=O)c4ccccc4)c4ccccc4)C(C)=C1C3(C)C)[C@]1(OC(C)=O)CO[C@@H]1C[C@@H]2O` [PACLITAXEL], the pIC50 was 8.22 with KB 3-1 [5], 7.10 with KB [6] and less than 5.52 in the test with KB-V1 (Homo sapiens).

(Values after ChEMBL document CHEMBL1137168, “Tubulin inhibitors. Synthesis and biological activity of HTI-286 analogs with B-segment heterosubstituents” (Bioorg Med Chem Lett, 2004).)
